Calls of active or inactive are those of the source.
Key:
[1] = molecular target: T1, Ubiquitin-conjugating enzyme E2 N (Homo sapiens, UniProt P61088); format: functional
T1 sequence (P61088 whole entry): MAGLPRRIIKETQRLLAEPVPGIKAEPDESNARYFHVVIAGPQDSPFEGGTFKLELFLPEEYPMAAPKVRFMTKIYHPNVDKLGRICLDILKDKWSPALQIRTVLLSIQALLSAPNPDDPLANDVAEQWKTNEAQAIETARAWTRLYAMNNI

[2] = molecular target: T1, Ubiquitin-conjugating enzyme E2 N; format: functional; remark: listed apart in the source
Bcl-2-related protein A1 = molecular target: T2, Bcl-2-related protein A1 (Mus musculus, UniProt Q07440); format: functional;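 note: confirmatory dose–response counterscreen on Bfl-1, used to check hits from a UBC13 polyubiquitin inhibitor campaign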
T2 sequence (Q07440 whole entry): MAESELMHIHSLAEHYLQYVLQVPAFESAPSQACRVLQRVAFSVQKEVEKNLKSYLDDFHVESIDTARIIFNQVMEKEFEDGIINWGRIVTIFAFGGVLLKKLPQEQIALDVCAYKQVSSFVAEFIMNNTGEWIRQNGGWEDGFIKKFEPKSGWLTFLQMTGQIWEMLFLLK

Phosphomannomutase 2 = Phosphomannomutase 2 (Homo sapiens, UniProt O15305); experiment: Counter screen SAR assay for PMM2 inhibitors via a fluorescence intensity assay. [Related pubchem assays (depositor defined):AID1545, AID1574]
Chain of Phosphomannomutase 2 (O15305 whole entry): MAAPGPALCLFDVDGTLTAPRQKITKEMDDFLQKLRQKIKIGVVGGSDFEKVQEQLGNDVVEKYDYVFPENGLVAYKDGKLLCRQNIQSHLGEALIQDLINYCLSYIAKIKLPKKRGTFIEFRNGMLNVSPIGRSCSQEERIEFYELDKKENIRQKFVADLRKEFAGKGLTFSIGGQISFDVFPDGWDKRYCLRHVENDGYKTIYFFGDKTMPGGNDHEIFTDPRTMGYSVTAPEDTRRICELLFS

[3] = molecular target: T3, Mannose-6-phosphate isomerase (Homo sapiens, UniProt P34949); experiment: phosphomannose isomerase inhibition – biochemical, fluorescence intensity, confirmation (AID 1535)
T3 sequence (P34949 whole entry): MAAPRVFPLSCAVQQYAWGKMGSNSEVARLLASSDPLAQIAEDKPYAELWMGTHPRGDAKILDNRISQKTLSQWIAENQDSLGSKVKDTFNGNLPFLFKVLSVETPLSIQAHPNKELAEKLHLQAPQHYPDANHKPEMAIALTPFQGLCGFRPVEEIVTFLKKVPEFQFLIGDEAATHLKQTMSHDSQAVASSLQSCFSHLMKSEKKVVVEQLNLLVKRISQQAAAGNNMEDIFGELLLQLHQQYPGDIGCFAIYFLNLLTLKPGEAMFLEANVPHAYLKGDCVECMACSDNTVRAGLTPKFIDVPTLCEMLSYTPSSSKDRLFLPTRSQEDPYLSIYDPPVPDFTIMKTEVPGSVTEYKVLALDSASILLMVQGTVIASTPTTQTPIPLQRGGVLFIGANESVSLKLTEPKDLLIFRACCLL

[4] = molecular target: T3, Mannose-6-phosphate isomerase; experiment: MPI enzyme activity inhibition – biochemical, fluorescence intensity, coupled assay, primary screen (AID 1209)
[5] = molecular target: G-protein coupled receptor 55 (Homo sapiens, UniProt Q9Y2T6); experiment: blockers of GPR55 signalling, imaged – imaging, image-based, counter-screen for GPR35 antagonist project, SAR follow-up (AID 2397); format: functional
Chain of G-protein coupled receptor 55 (Q9Y2T6 whole entry): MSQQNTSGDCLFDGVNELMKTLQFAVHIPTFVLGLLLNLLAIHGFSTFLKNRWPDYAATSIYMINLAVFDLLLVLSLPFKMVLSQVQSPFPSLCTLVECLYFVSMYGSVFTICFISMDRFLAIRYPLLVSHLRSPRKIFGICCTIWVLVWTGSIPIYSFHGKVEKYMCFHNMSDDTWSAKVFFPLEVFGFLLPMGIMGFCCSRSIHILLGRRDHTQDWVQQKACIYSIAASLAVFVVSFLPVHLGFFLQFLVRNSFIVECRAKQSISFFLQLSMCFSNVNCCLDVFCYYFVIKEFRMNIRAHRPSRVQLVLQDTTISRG

[6] = fluconazole-exposed Candida albicans growth modulators – fluorescence, retest, confirmation (AID 2467); format: functional, cell-based
Protein RecA = molecular target: T4, Protein RecA (Mycobacterium tuberculosis, UniProt P9WHJ3); experiment: Fluorescence Cell-Free Homogeneous Dose Retest to Identify Inhibitors of RecA-Intein Splicing Activity. [Related pubchem assays (depositor defined):AID2097, AID2223, AID489010, AID492950]; format: functional
T4 sequence (P9WHJ3 whole entry): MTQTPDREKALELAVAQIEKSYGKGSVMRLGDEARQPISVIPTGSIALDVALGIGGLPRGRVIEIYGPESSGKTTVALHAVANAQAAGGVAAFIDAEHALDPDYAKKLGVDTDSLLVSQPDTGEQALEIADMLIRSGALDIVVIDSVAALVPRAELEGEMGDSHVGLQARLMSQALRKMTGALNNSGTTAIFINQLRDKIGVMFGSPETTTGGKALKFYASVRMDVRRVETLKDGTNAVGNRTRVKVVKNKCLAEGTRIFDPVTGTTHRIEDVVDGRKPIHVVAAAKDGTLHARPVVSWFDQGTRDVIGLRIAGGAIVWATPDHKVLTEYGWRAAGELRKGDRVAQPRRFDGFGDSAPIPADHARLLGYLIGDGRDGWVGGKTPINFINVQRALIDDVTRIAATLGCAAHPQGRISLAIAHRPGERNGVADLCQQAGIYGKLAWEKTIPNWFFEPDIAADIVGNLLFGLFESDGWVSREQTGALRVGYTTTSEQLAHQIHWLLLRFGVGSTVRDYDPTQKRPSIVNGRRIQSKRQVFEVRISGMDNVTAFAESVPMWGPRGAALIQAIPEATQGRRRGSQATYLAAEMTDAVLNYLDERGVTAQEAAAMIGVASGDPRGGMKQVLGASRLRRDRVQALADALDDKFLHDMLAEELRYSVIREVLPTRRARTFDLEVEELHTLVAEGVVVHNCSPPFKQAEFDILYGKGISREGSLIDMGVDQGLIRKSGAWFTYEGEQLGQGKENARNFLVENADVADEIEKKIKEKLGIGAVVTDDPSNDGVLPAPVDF

[7] = molecular target: T5, Apoptotic protease-activating factor 1 (Homo sapiens, UniProt O14727); format: functional
T5 sequence (O14727 whole entry): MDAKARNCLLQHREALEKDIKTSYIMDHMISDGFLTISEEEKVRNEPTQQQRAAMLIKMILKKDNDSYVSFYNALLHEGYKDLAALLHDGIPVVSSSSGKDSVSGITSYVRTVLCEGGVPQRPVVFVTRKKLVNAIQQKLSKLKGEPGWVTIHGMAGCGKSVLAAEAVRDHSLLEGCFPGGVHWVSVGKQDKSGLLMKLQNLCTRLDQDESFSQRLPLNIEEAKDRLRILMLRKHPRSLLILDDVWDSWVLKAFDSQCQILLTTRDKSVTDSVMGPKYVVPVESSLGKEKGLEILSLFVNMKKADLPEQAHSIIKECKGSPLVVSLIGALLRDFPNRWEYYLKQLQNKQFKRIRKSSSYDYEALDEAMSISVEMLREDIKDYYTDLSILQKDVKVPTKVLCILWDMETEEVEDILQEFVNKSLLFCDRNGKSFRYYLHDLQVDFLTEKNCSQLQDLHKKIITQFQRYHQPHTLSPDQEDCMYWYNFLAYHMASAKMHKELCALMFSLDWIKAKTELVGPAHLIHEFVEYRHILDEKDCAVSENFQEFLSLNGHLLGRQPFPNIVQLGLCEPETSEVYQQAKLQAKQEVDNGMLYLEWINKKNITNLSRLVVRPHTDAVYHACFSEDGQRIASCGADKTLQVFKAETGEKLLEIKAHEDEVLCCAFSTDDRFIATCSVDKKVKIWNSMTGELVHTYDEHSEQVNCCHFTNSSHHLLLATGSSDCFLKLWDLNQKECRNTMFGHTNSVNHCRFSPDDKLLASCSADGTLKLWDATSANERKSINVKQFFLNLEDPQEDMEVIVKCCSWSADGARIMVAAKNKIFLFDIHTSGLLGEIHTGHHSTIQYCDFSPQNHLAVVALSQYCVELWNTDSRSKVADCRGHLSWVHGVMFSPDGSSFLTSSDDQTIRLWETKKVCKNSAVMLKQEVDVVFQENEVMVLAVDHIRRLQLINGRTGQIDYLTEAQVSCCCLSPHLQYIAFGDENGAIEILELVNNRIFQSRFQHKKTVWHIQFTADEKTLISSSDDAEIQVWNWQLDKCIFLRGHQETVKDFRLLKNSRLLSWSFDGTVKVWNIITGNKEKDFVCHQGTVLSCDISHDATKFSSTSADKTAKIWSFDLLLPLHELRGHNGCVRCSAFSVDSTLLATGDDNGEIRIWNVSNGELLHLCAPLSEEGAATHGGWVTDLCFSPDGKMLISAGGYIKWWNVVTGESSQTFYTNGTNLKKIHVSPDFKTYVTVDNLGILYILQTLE

[8] = NIH-3T3 fibroblast cytotoxicity, dose response, cytotoxicity control, cell-based, fluorescence, Alamar Blue, secondary assay (AID 2327); format: functional;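 note: NIH-3T3 mouse fibroblasts cultured with fluconazole at 8 µg/mL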
SUMO-activating enzyme = SUMO-activating enzyme (Homo sapiens, UniProt Q9UBT2); experiment: blockers of UBC9-mediated SUMO conjugation – biochemical, AlphaScreen, SUMOylation inhibitor project, confirmation (AID 2018); format: functional
Chain of SUMO-activating enzyme (Q9UBE0 whole entry): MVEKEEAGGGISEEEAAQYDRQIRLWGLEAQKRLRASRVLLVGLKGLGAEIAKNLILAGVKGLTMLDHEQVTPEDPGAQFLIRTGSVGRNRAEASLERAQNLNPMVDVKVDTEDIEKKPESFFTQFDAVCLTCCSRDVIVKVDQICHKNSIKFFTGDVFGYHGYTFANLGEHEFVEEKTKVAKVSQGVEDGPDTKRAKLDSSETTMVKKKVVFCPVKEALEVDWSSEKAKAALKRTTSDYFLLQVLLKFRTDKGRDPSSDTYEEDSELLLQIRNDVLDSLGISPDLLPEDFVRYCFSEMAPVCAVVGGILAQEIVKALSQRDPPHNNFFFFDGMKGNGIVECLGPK
Chain of SUMO-activating enzyme (Q9UBT2 whole entry): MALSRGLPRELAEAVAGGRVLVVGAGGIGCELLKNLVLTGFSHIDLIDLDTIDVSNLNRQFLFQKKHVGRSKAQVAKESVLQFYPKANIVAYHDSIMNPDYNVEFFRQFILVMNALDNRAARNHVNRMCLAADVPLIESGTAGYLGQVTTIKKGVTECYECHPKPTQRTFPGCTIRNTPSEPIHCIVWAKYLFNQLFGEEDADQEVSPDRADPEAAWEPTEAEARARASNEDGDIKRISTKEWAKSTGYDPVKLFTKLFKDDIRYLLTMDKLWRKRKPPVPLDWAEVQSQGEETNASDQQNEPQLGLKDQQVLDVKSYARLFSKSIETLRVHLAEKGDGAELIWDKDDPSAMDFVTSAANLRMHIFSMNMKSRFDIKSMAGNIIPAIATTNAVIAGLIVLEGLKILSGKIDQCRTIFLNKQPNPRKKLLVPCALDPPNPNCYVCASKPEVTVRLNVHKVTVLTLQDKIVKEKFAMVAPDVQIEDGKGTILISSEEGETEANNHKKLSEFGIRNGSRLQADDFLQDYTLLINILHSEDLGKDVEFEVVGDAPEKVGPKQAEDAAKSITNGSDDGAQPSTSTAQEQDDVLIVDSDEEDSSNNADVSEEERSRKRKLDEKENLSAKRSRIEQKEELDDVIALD

[9] = molecular target: T6, Replicative DNA helicase DnaB (Mycobacterium tuberculosis, UniProt P9WMR3); experiment: DnaB intein splicing inhibitors, dose response, biochemical, cell-free fluorescence (AID 449749); format: functional
T6 sequence (P9WMR3 whole entry): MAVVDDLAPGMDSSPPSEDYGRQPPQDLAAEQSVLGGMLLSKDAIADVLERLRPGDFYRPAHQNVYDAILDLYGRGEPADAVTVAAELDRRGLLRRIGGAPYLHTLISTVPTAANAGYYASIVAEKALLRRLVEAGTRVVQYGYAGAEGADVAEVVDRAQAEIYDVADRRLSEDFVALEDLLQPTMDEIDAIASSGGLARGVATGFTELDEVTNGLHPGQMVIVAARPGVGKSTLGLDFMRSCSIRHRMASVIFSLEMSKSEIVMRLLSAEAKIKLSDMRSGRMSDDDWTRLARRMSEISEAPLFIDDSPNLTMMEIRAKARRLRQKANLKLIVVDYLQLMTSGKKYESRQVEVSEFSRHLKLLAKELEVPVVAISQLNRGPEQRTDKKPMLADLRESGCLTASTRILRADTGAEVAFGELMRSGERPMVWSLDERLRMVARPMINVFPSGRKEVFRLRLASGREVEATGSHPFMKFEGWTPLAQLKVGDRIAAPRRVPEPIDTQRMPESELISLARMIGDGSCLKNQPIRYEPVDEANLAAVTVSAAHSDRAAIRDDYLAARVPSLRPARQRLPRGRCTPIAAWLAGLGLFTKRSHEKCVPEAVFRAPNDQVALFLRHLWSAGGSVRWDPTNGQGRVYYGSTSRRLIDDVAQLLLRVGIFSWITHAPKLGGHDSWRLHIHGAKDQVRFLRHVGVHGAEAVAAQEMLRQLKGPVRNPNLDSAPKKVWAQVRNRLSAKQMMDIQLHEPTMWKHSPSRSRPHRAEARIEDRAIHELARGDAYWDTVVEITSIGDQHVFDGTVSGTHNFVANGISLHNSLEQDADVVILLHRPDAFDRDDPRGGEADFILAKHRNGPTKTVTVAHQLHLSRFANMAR

[10] = Luminescence Cell-Based Dose Response HTS to Identify Inhibitors of 5'UTR Stem-Loop Driven Prion Protein mRNA Translation in H4 Neuroglioblastoma Cells. [Related pubchem assays: 1827 (Project Summary), 1813 (Primary HTS)]; format: functional
Vero = experiment: mammalian cell viability reduction – secondary assay, cytotoxicity control for West Nile virus antiviral project, dose response (AID 1650); format: functional; settings: Chlorocebus sabaeus
[11] = luciferase reporter signal suppression in cells – H4 neuroglioma cells, luminescence, dose response (AID 1990); format: functional, cell-based
[12] = alpha-synuclein stem-loop luciferase translation blockers – H4 neuroglioma cells, luminescence, confirmation (AID 1988); format: functional, cell-based

CCOc1ccc(N(C(=O)c2snc(C(N)=O)c2N)C(CC)C(=O)NC2CCCC2)cc1 (stereo unspecified)
IC50 [1]: 12.3 µM (active) | IC50 [2]: 10.1 µM (active) | IC50 (Bcl-2-related protein A1): > 20 µM (inactive)

CCC(=O)NC(=S)NNC(=O)c1ccc(NC(=O)c2ccccc2)cc1
IC50 [1]: 3.81 µM (active) | IC50 [2]: 11.4 µM (active) | IC50 (Bcl-2-related protein A1): > 20 µM (inactive)

Cc1ccc(NC2Nc3cc(C)nn3S2)c(C)c1 (stereo unspecified)
IC50 (Phosphomannomutase 2): > 100 µM (inactive) | IC50 [3]: > 50 µM (inactive) | IC50 [4]: 11.2 µM (active)

CCc1ccc(NC(=O)CSc2nc3ccsc3c(=O)n2Cc2ccc(OC)cc2)cc1
IC50 [5]: > 32 µM (inactive)

O=[N+]([O-])c1cccc(/C=N/c2cccc3ccccc23)c1O
EC50 [6]: 3.78 µM (active) | EC50 (Protein RecA): 41.9 µM (active) | IC50 [7]: 56.6 µM (active) | EC50 [8]: 107 µM (active) | IC50 (SUMO-activating enzyme): 20.4 µM (active) | AC50 [9]: 54.6 µM (active)

COc1ccc(NC(=O)C(=O)N/N=C\c2ccc(CNC(=O)C(=O)Nc3ccc(C)c(C)c3)o2)c(OC)c1
EC50 [10]: 9.34 µM (active) | CC50 (Vero): 15.1 µM (active) | EC50 [11]: 6.59 µM (active) | IC50 (SUMO-activating enzyme): 30.4 µM (active) | EC50 [12]: 5.4 µM (active)
